Measurements as given in patent US8865758B2, “Pyrazolo piperidine derivatives as NADPH oxidase inhibitors” (Genkyotex SA, priority 2010, dated 2014).

Tested on: NOX
Assay: Nitroblue tetrazolium (NBT) superoxide test in cells
Assay type: cell-based, human
Details: DPI 10 μM, usually
Protocol: Human microglia cell line (HMC3, human microglia clone 3) (Janabi et al., 1995, Neurosci. Lett. 195:105) were cultured in MEM (Eagle's minimum essential medium) containing 10% FBS with 50 U/ml penicillin G sodium 50 μg/ml streptomycin sulfate, and incubated at 37° C. for 24 hours. IFN-γ (human IFN-γ, Roche. 11 040 596 001) was added to the culture medium for a final concentration of 10 ng/ml 24 h, before detection of O2^− formation. […]
Intracellular and extracellular superoxide was measured by a colorimetric technique using a quantitative nitroblue tetrazolium (NBT) test. SOD-inhibitable conversion of NBT to formazan, a fine blue precipitate, in the presence of superoxide anion was measured using Fluostar Optima spectrometer (BMG labtech). […] The absorption was measured at 630 nm. For calculation, the absorbance at 630 nm was normalized for each individual well. […] NOX activities were expressed as % of the activity in control cells. […]

Compound	Residual activity of DPI-treated cells (NOX activity as % of control cells)
c1ccc([I+]c2ccccc2)cc1 [DPI, Diphenyl-iodonium]	< 10%

Target: T1, NOX (Homo sapiens, UniProt P04839)
T1 construct: HL60 differentiation to the neutrophil phenotype was triggered by adding Me2SO; endogenous in cells; host or cells: HL-60 cells differentiated with Me2SO (1.25% v/v, 6 days) to the neutrophil phenotype
T1 sequence (P04839 2-570 limits assumed): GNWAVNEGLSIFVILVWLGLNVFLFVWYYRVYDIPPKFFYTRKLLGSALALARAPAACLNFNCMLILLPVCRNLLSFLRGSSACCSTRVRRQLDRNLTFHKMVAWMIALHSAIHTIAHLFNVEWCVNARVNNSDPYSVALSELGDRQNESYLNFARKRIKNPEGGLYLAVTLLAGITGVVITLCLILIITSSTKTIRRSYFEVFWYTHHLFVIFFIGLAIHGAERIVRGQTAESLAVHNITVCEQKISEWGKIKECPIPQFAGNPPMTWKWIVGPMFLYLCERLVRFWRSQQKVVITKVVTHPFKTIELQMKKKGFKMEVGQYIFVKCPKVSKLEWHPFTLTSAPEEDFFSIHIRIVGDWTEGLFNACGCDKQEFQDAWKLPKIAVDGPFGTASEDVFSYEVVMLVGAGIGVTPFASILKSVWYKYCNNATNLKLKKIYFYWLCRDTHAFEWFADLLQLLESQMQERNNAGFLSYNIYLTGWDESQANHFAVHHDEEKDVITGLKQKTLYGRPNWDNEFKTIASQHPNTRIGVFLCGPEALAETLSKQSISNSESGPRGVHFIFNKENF
T1 sequence (P13498 1-195 partner): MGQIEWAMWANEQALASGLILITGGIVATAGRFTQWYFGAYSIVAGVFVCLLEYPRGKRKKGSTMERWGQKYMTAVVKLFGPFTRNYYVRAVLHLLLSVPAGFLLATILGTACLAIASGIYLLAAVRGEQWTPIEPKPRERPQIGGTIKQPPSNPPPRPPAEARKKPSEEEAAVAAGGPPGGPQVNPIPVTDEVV
Assay: Amplex Red measurement of extracellular hydrogen peroxide (NOX activity) in DMSO-differentiated HL60 cells
Assay type: cell-based
Details: not given
Protocol: Human acute myeloid leukemia cell line HL-60 was cultured in RPMI 1640 (Invitrogen) supplemented with 10% heat-inactivated calf serum, 2 mM glutamine, 100 U/mL penicillin (Sigma), and 100 μg streptomycin (Sigma) at 37° C. under a humidified atmosphere of 5% CO2. HL60 differentiation to the neutrophil phenotype was triggered by adding Me2SO (final concentration 1.25% v/v for 6 days) to the culture medium.
Extracellular hydrogen peroxide was measured using Amplex UltraRed (Molecular Probes). Cells were trypsinized (1× Trypsin-EDTA), collected by centrifugation, and resuspended in HBSS supplemented with 1% glucose. Cells were seeded into black 96-well plates at a density of 50′000 cells in 200 μl testing buffer (HBSS 1% glucose containing 0.005 U/mL horseradish peroxidase (Roche) and 50 μM Amplex Red in the presence or absence of compounds according to the invention. As a control, DPI was included at a final concentration of 10 μM The plates were placed in the fluorescent Optima Fluorescent plate reader and kept at 37° C. during 20 min. Fluorescence was measured for […] with excitation and emission wavelengths of 544 nm and 590 nm respectively. NOX activities were expressed as % of the activity in control cells. Residual activity of DPI-treated cells was usually <10%. […]
The Table 3 below summarizes the IC50 of NOX activity as measured by Amplex Red using DMSO-differentiated HL60 cells as described above: […]

Compound	IC50
O=c1c2c([nH]n1-c1ccc(F)cc1Cl)CCNC2 [Compound 4, 2-(2-chloro-4-fluorophenyl)-1,2,4,5,6,7-hexahydro-3H-pyrazolo[4,3-c]pyridin-3-one]	< 5 µM
Cc1ccc(S(=O)(=O)N2CCc3[nH]n(Cc4cn5ccccc5n4)c(=O)c3C2)cc1 [Compound 103, 2-(imidazo[1,2-a]pyridin-2-ylmethyl)-5-[(4-methylphenyl)sulfonyl]-1,2,4,5,6,7-hexahydro-3H-pyrazolo[4,3-c]pyridin-3-one]	< 5 µM
CN1N=C2CCN(Cc3ccc(Cl)cc3)CC2(Cc2cccnc2)C1=O (stereo not shown) [Compound 87, 5-(4-chlorobenzyl)-2-methyl-3a-(pyridin-3-ylmethyl)-2,3a,4,5,6,7-hexahydro-3H-pyrazolo[4,3-c]pyridin-3-one]	< 5 µM
O=c1c2c([nH]n1-c1cccc(OCc3ccccc3)c1)CCN(Cc1ccccc1)C2 [Compound 3, 5-benzyl-2-[3-(benzyloxy)phenyl]-1,2,4,5,6,7-hexahydro-3H-pyrazolo[4,3-c]pyridin-3-one]	< 5 µM
CN1CCC(n2[nH]c3c(c2=O)CN(Cc2ccc(Cl)nc2)CC3)CC1 [Compound 96, 5-[(6-chloropyridin-3-yl)methyl]-2-(1-methylpiperidin-4-yl)-1,2,4,5,6,7-hexahydro-3H-pyrazolo[4,3-c]pyridin-3-one]	< 5 µM
CS(=O)(=O)N1CCc2[nH]n(Cc3ccccc3)c(=O)c2C1 [Compound 102, 2-benzyl-5-(methylsulfonyl)-1,2,4,5,6,7-hexahydro-3H-pyrazolo[4,3-c]pyridin-3-one]	< 5 µM

More lines, now with the values ahead:

IC50	Compound
< 5 µM	O=c1c2c([nH]n1Cc1ccccc1)CCN(Cc1ccc(Cl)nc1)C2 [Compound 97, 2-benzyl-5-[(6-chloropyridin-3-yl)methyl]-1,2,4,5,6,7-hexahydro-3H-pyrazolo[4,3-c]pyridin-3-one]
< 5 µM	O=c1c2c([nH]n1Cc1ccccc1)CCN(Cc1ccc(Cl)cc1)C2 [Compound 9, 2-benzyl-5-(4-chlorobenzyl)-1,2,4,5,6,7-hexahydro-3H-pyrazolo[4,3-c]pyridin-3-one]
< 5 µM	O=c1c2c([nH]n1-c1ccc(F)cc1Cl)CCN(Cc1ccccc1)C2 [Compound 2, 5-benzyl-2-(2-chloro-4-fluorophenyl)-1,2,4,5,6,7-hexahydro-3H-pyrazolo[4,3-c]pyridin-3-one]
< 5 µM	Cn1[nH]c2c(c1=O)CN(Cc1ccccc1)CC2 [Compound 8, 5-benzyl-2-methyl-1,2,4,5,6,7-hexahydro-3H-pyrazolo[4,3-c]pyridin-3-one]
< 5 µM	O=c1c2c([nH]n1Cc1ccccc1)CCN(Cc1ccccc1)C2 [Compound 12, 2,5-dibenzyl-1,2,4,5,6,7-hexahydro-3H-pyrazolo[4,3-c]pyridin-3-one]
< 5 µM	COc1cccc(-n2[nH]c3c(c2=O)CN(Cc2ccccc2)CC3)c1 [Compound 24, 5-benzyl-2-(3-methoxyphenyl)-1,2,4,5,6,7-hexahydro-3H-pyrazolo[4,3-c]pyridin-3-one]
< 5 µM	O=c1c2c([nH]n1Cc1ccc(Cl)cc1)CCN(Cc1ccccc1)C2 [Compound 1, 5-benzyl-2-(4-chlorobenzyl)-1,2,4,5,6,7-hexahydro-3H-pyrazolo[4,3-c]pyridin-3-one]

Tested on: NOX
Assay: Chemiluminescence (luminol) ROS measurement in cells
Assay type: cell-based, human
Details: usually
Protocol: ROS was measured using the chemiluminescent probe luminol. Cells were cultured and plated as for Amplex Red except that the Amplex Red agent was replaced by 10 μg/mL luminol (Sigma 09235). Light emission was recorded continuously at 37° C. for 60 minutes using the luminescence function of the FluoStar Optima fluorescent plate reader. The mean of the four blank values was subtracted from each corrected value for each time point. NOX activities were expressed as % of the activity in control cells. Residual activity of DPI-treated cells was usually <10%.

Compound	Residual activity of DPI-treated cells (NOX activity as % of control cells)
c1ccc([I+]c2ccccc2)cc1 [DPI, Diphenyl-iodonium]	< 10%

Tested on: NOX
Assay: H2DCF-DA fluorescence in TGF-β stimulated HUVEC
Assay type: cell-based, human
Details: usually
Protocol: HUVEC are cultured in endothelial basal medium supplemented with hydrocortisone (1 μg/mL, Calbiochem), bovine brain extract (12 μg/mL), gentamicin (50 μg/mL, Calbiochem), amphotericin B (50 ng/mL, Calbiochem EGF (10 ng/mL, and 10% FCS until the fourth passage. When the fifth passage was started, cells were cultured with a lower concentration of FCS (2%) in the absence of EGF, if not indicated otherwise. All experiments were done with cells of the fifth passage. The cells were incubated with OxLDL (oxidized low-density lipoprotein) or its buffer as control for 24 h, before detection of O2^− formation.
HUVEC were plated on coverslips and made quiescent overnight in 0.5% BSA before stimulation with TGF-β. Cells were loaded for 10 minutes with 5 μM CM-H2DCF-DA in phenol-red-free medium in the dark and then treated with TGF-β (R&D Systems) in the presence or absence of compounds according to the invention. Cells were then visualized by immunofluorescence microscopy after fixation and staining of the nuclei with DAPI or examined live using confocal microscopy. DCF fluorescence was visualized at an excitation wavelength of 488 nm and emission at 515 to 540 nm. […] For calculation, the absorbance at […] was normalized to absorbance at […] for each individual well. […] NOX activities were expressed as % of the activity in control cells. […]

Compound	Residual activity of DPI-treated cells (NOX activity as % of control cells)
c1ccc([I+]c2ccccc2)cc1 [DPI, Diphenyl-iodonium]	< 10%
